Reference: patent publication US5849755A, “3-amidochromanylsulfonyl(thio)ureas, processes for their preparation, their use, and pharmaceutical preparations comprising them” (Hoechst Aktiengesellschaft, priority 1996, dated 1998)

Columns and labels:
RINm5F cells = experiment: Test 2: Membrane potential on isolated β cells (RINm5F, whole cell patch clamp); assay type: cell-based; settings: diazoxide 100 μmol/l in bath, 34°±1° C.
Text: Test 2: Membrane potential on isolated β cells The action mechanism of hypoglycemic sulfonylureas is understood in principle. The β cells of the pancreas are the target organ of sulfonylureas, where they bring about a release of the hypoglycemic hormone insulin by influencing the electrical potential of the cell membrane. A hypoglycemic sulfonylurea, for example glibenclamide, has the effect of depolarizing the cell membrane, which leads to an increased inflow of calcium ions and, as a consequence thereof, to the release of insulin. The extent AU of this depolarization of the cell membrane caused by the substances according to the invention was determined on insulin-secreting RINm5F cells, a pancreas tumor cell line. The activity of a compound in this model predicts the extent of the hypoglycemic potential of this compound. Cell cultures of RINm5F cells: RINm5F cells were cultured at 37° C. in RPMI 1640 culture medium (Flow) to which 11 mM glucose, 10% (volume/volume) fetal calf serum, 2 mM glutamine and 50 μg/ml of gentamycin were added. The cells were sown on Petri dishes every 2 to 3 days and kept at a temperature of 37° C. in a moistened atmosphere of […] and 5% CO2. For the investigations, the cells were isolated by incubation (about 3 minutes) in a Ca^2+ -free medium which comprised 0.25% trypsin. Measurement method: Isolated RINm5F cells were introduced into a Plexiglas chamber on an inverse microscope which was equipped with a differential interference contrast lens. Under visual control (400-fold magnification),a fire-polished micropipette with an opening diameter of about 1 μm was placed on the cell with the aid of a micromanipulator. By applying a slight reduced pressure to the inside of the patch pipette, a high electrical seal was initially established between the glass and the cell membrane. By increasing the reduced pressure, the membrane patch under the […] pipette was then broken open. In this whole cell configuration,the cell potential was recorded with the aid of a patch clamp amplifier (L/M EPC 7, List, Darmstadt) and the whole cell current was measured by applying a voltage ramp. […] Stock solutions (concentration 100 mmol/l) of the test substances in dimethyl sulfoxide (DMSO) and corresponding dilutions in NaCl solution were prepared. DMSO alone had no effect on the cell potential. To stabilize the cell potential, diazoxide (100 μmol/l), an opener of ATP-sensitive K^+ channels, was added to the bath solution in all experiments. All experiments were carried out at 34°±1° C. The following values ΔU (changes in the cell potentials caused by the addition of the test substances) were measured. The control values in parentheses are the cell potentials U before the addition of the test substances. For comparison the values obtained in this test with glibenclamide, a typical hypoglycemic benzenesulfonylurea, are given.

[1] = system: papillary muscle of the guinea pig; experiment: Test 1: Duration of the action potential of the papillary muscle of the guinea pig (APD95, shortened by HOE 234); assay type: cell-based; settings: HOE 234 1 μg/ml in bath, 30 minutes after addition, mean of n = 3, control with HOE 234 alone <40
Text: Test 1: Duration of the action potential of the papillary muscle of the guinea pig
ATP deficiency states such as are observed in the cardiac muscle cell during ischemia lead to a shortening of the duration of the action potential. They are regarded as one of the causes of so-called "re-entry arrhythmias," which can cause sudden cardiac death. The opening of ATP-sensitive potassium channels as a result of the fall in ATP is regarded as the cause of this.
A standard microelectrode technique was employed to measure the action potential. For this, guinea pigs of both sexes were sacrificed by a blow to the head, the hearts were removed and the papillary muscles were separated out and suspended in an organ bath. The organ bath was flushed with Ringer's solution (0.9% NaCl, 0.048% KCl, 0.024% CaCl2, 0.02% NaHCO3 and 0.1% glucose) and gassed with a mixture of 95% oxygen and 5% carbon dioxide at a temperature of 36° C. The muscle was stimulated via an electrode with rectangular pulses of 1 V and 1 ms duration and a frequency of 2 Hz. The action potential was derived through a glass microelectrode which was inserted intracellularly and filled with 3M KCl solution, and recorded. The substances to be tested were added to the Ringer's solution in a concentration of 2×10^-6 mol per liter or 2×10^-5 mol per liter. The action potential was amplified with a Hugo Sachs amplifier and shown on an oscilloscope. The duration of the action potential in milliseconds (ms) was determined at a degree of repolarization of 95% (APD95). Shortenings of the action potential were induced by addition of a solution of the potassium channel opener HOE 234 (Rilmakalim) (W. Linz, E. Klaus, U. Albus, R. H. A. Becker, D. Mania, H. C. Englert, B. A. Scholkens, Arzneimittelforschung/Drug Research, Volume 42 (II), 1992, 1180-1185), a concentration of HOE 234 in the bath solution of 1 μg/ml being established. The test substances were added to the bath solution as stock solutions in propanediol. The values stated are based on measurements 30 minutes after the addition. As a control, the APD95 value was determined in the presence of HOE 234 and in the absence of the test substance.
The measurement values (mean values from n experiments) are followed by the corresponding blank values in parentheses. The blank values are the APD95 values which were measured at the start of the experiment without HOE 234 and test substance in the Ringer's solution. The values obtained show the normalizing effect of the compounds according to the invention on a shortened duration of the action potential.

| SMILES | ΔU (mV), change in the cell potential caused by the addition of the test substance (RINm5F cells; 1 μmol/l) [mV] | ΔU (mV), change in the cell potential caused by the addition of the test substance (RINm5F cells; 10 μmol/l) [mV] | APD95 -HOE 234 ([1]; test substance 20 μmol/l) [ms] | APD95 -HOE 234 ([1]; test substance 2 μmol/l) [ms] |
| --- | --- | --- | --- | --- |
| CNC(=O)NS(=O)(=O)c1cc2c(cc1OC)OCC(NC(=O)c1cc(Cl)ccc1OC)C2 (stereo not shown) [Example 1, 3-(5-Chloro-2-methoxybenzamido)-6-(methylaminocarbonylaminosulfonyl)-7-methoxychroman] | 6 | 24 | 157 ± 36 | – |
| CCCNC(=O)NS(=O)(=O)c1cc2c(cc1OC)OCC(NC(=O)c1cc(Cl)ccc1OC)C2 (stereo not shown) [Example 3, 3-(5-Chloro-2-methoxybenzamido)-6-(n-propylamino-carbonylaminosulfonyl)-7-methoxychroman] | 18 | 23 | 134 ± 9 | – |
| CNC(=S)NS(=O)(=O)c1cc2c(cc1OC)OCC(NC(=O)c1cc(Cl)ccc1OC)C2 (stereo not shown) [Example 6] | 3 | – | – | 145 ± 19.1 |
| CCNC(=S)NS(=O)(=O)c1cc2c(cc1OC)OCC(NC(=O)c1cc(Cl)ccc1OC)C2 (stereo not shown) [Example 7, 3-(5-Chloro-2-methoxybenzamido)-6-(ethylaminothiocarbonylaminosulfonyl)-7-methoxychroman] | 29 | – | – | 130 ± 28.1 |
| COc1ccc(F)cc1C(=O)NC1Cc2cc(S(=O)(=O)NC(=S)NC(C)C)c(OC)cc2OC1(C)C (stereo not shown) [Example 21, 3-(5-Fluoro-2-methoxybenzamido)-2,2-dimethyl-6-(isopropylaminothiocarbonylaminosulfonyl)-7-methoxychroman] | – | – | – | 67 ± 10 |
| COc1ccc(Cl)cc1C(=O)NCCc1ccc(S(=O)(=O)NC(=O)NC2CCCCC2)cc1 [Glibenclamide, glibenclamide, reference compound] | 47 | 46 | – | – |
